The target in assay [1] is Tyrosine-protein kinase Lck (Homo sapiens) (UniProt P06239). Briefly: Compound was tested for its antagonistic activity at 100 uM concentration against SH2 domain of LCK protein. It counts as functional.
For assay [2], the target named is Growth factor receptor-bound protein 2 (Homo sapiens) (UniProt P62993). Briefly: Antagonistic activity at 100 uM concentration against SH-2 domain of growth factor receptor binding protein (Grb2).
Assay [3] addresses T1, Tyrosine-protein kinase ZAP-70 (Homo sapiens, UniProt P43403).
T1 sequence (P43403 whole entry): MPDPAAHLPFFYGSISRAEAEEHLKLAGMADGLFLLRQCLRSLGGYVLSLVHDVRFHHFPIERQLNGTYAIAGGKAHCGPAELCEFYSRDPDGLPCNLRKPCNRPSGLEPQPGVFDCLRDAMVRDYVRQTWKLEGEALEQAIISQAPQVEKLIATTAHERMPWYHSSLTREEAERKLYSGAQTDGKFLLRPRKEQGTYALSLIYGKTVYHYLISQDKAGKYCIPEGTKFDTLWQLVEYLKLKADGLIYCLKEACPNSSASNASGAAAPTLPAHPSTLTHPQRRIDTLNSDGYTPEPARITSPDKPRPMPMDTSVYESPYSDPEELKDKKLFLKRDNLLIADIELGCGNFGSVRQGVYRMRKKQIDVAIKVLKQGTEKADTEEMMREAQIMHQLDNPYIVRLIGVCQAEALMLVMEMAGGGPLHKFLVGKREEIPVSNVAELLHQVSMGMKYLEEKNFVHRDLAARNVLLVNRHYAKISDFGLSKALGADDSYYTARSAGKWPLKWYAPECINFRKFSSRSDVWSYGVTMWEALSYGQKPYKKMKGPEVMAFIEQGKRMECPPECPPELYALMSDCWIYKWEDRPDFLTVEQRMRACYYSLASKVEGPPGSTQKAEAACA
Briefly: Inhibition of binding to human ZAP-70 SH2 domain.

The results in this text go back to ChEMBL document CHEMBL1130753, “Solid phase synthesis of a biased mini tetrapeptoid-library for the discovery of monodentate ITAM mimics as ZAP-70 inhibitors” (Bioorg Med Chem Lett, 1998).

Where a SMILES comes first, the peptide text is derived from it. [ ]: non-standard residue; d: D form. The star is where a group is joined. Gly(N-Bn(4-CH2PO3H2)) = O=C(O)CNCc1ccc(CP(=O)(O)O)cc1; N(3-phenylpropyl)Gly = O=C(O)CNCCCc1ccccc1; Hexanoyl = CCCCCC(=O)*; Nleu = CC(C)CNCC(=O)O; NEtG = CCNCC(=O)O

Sequence of Growth factor receptor-bound protein 2 (Homo sapiens) (P62993 whole entry, looked up): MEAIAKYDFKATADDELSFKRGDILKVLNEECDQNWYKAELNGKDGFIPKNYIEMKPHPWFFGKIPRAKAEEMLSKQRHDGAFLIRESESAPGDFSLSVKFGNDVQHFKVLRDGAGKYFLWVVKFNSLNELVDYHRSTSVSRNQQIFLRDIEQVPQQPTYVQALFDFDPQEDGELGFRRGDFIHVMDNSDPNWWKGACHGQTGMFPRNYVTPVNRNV
Sequence of Tyrosine-protein kinase Lck (Homo sapiens) (P06239 2-509 limits assumed): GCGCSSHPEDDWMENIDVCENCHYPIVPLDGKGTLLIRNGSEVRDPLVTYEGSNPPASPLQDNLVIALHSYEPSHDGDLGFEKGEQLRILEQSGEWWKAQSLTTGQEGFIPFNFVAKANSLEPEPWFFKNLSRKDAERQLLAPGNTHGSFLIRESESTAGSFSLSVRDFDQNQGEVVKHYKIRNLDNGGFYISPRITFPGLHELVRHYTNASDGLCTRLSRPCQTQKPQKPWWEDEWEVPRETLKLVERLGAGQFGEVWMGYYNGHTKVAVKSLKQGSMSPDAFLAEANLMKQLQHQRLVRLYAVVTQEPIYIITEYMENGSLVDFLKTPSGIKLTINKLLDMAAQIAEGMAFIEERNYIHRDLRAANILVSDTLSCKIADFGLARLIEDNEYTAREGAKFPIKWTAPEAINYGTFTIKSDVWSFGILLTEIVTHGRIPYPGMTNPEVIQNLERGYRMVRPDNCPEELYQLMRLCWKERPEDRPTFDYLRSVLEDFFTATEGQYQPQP

Consider `CCCCCC(=O)N(CC(=O)N(CCCc1ccccc1)CC(=O)N(CCCc1ccccc1)CC(=O)N(CCCc1ccccc1)CC(N)=O)Cc1ccc(CP(=O)(O)O)cc1` (Hexanoyl-[Gly(N-Bn(4-CH2PO3H2))][N(3-phenylpropyl)Gly][N(3-phenylpropyl)Gly][N(3-phenylpropyl)Gly]-NH2), for which the inhibition was determined as 4% in assay [1] and 5% in assay [2].

With `CCCCCC(=O)N(CC(=O)N(CCCc1ccccc1)CC(=O)N(CCCc1ccccc1)CC(=O)N(CC)CC(N)=O)Cc1ccc(CP(=O)(O)O)cc1` (Hexanoyl-[Gly(N-Bn(4-CH2PO3H2))][N(3-phenylpropyl)Gly][N(3-phenylpropyl)Gly][NEtG]-NH2), the inhibition in assay [1] and in assay [2] was 4% each time.

For the molecule `CCCCCC(=O)N(CC(=O)N(CCCc1ccccc1)CC(=O)N(CCCc1ccccc1)CC(=O)N(CC(N)=O)CC(C)C)Cc1ccc(CP(=O)(O)O)cc1` (Hexanoyl-[Gly(N-Bn(4-CH2PO3H2))][N(3-phenylpropyl)Gly][N(3-phenylpropyl)Gly][Nleu]-NH2), the figures for the inhibition in assay [1] and in assay [2] were 6% and 3%, respectively.

As for `CCCCCC(=O)N(CC(=O)N(CCCc1ccccc1)CC(=O)N(CC)CC(=O)N(CCCc1ccccc1)CC(N)=O)Cc1ccc(CP(=O)(O)O)cc1` (Hexanoyl-[Gly(N-Bn(4-CH2PO3H2))][N(3-phenylpropyl)Gly][NEtG][N(3-phenylpropyl)Gly]-NH2), the IC50 in assay [3] is above 100 µM. For the same molecule, the inhibition in assay [1] came to 4%; in assay [2], 20%.

Turning to `CCCCCC(=O)N(CC(=O)N(CCCc1ccccc1)CC(=O)N(CC)CC(=O)N(CC)CC(N)=O)Cc1ccc(CP(=O)(O)O)cc1` (Hexanoyl-[Gly(N-Bn(4-CH2PO3H2))][N(3-phenylpropyl)Gly][NEtG][NEtG]-NH2), the inhibition in assay [1] amounted to 4%; in assay [2], 5%.

`CCCCCC(=O)N(CC(=O)N(CCCc1ccccc1)CC(=O)N(CC)CC(=O)N(CC(N)=O)CC(C)C)Cc1ccc(CP(=O)(O)O)cc1` (Hexanoyl-[Gly(N-Bn(4-CH2PO3H2))][N(3-phenylpropyl)Gly][NEtG][Nleu]-NH2): the results for the inhibition in assay [1] and in assay [2] were 7% and 3%, respectively.

With `CCCCCC(=O)N(CC(=O)N(CCCc1ccccc1)CC(=O)N(CC(=O)N(CCCc1ccccc1)CC(N)=O)CC(C)C)Cc1ccc(CP(=O)(O)O)cc1` (Hexanoyl-[Gly(N-Bn(4-CH2PO3H2))][N(3-phenylpropyl)Gly][Nleu][N(3-phenylpropyl)Gly]-NH2), in assay [3], the 50% inhibitory concentration (IC50) is above 100 µM. The inhibition in assay [1] and in assay [2] was 32% in each case.

As for `CCCCCC(=O)N(CC(=O)N(CCCc1ccccc1)CC(=O)N(CC(=O)N(CC)CC(N)=O)CC(C)C)Cc1ccc(CP(=O)(O)O)cc1` (Hexanoyl-[Gly(N-Bn(4-CH2PO3H2))][N(3-phenylpropyl)Gly][Nleu][NEtG]-NH2), the results for the inhibition in assay [1] and in assay [2] were 5% and 6%, respectively.

Turning to `CCCCCC(=O)N(CC(=O)N(CCCc1ccccc1)CC(=O)N(CC(=O)N(CC(N)=O)CC(C)C)CC(C)C)Cc1ccc(CP(=O)(O)O)cc1` (Hexanoyl-[Gly(N-Bn(4-CH2PO3H2))][N(3-phenylpropyl)Gly][Nleu][Nleu]-NH2), the values for the inhibition in assay [1] and in assay [2] were 16% and 0%, respectively.

For the molecule `CCCCCC(=O)N(CC(=O)N(CC)CC(=O)N(CCCc1ccccc1)CC(=O)N(CCCc1ccccc1)CC(N)=O)Cc1ccc(CP(=O)(O)O)cc1` (Hexanoyl-[Gly(N-Bn(4-CH2PO3H2))][NEtG][N(3-phenylpropyl)Gly][N(3-phenylpropyl)Gly]-NH2), the figures for the inhibition in assay [1] and in assay [2] were 0% and 2%, respectively.

For the molecule `CCCCCC(=O)N(CC(=O)N(CC)CC(=O)N(CCCc1ccccc1)CC(=O)N(CC)CC(N)=O)Cc1ccc(CP(=O)(O)O)cc1` (Hexanoyl-[Gly(N-Bn(4-CH2PO3H2))][NEtG][N(3-phenylpropyl)Gly][NEtG]-NH2), the inhibition in assay [1] stood at 7%; in assay [2], 8%.

For the molecule `CCCCCC(=O)N(CC(=O)N(CC)CC(=O)N(CCCc1ccccc1)CC(=O)N(CC(N)=O)CC(C)C)Cc1ccc(CP(=O)(O)O)cc1` (Hexanoyl-[Gly(N-Bn(4-CH2PO3H2))][NEtG][N(3-phenylpropyl)Gly][Nleu]-NH2), the inhibition was found to be 3% in assay [1] and 4% in assay [2].

As to `CCCCCC(=O)N(CC(=O)N(CC)CC(=O)N(CC)CC(=O)N(CCCc1ccccc1)CC(N)=O)Cc1ccc(CP(=O)(O)O)cc1` (Hexanoyl-[Gly(N-Bn(4-CH2PO3H2))][NEtG][NEtG][N(3-phenylpropyl)Gly]-NH2), the inhibition in assay [1] came out at 1%; in assay [2], 4%.

Take `CCCCCC(=O)N(CC(=O)N(CC)CC(=O)N(CC)CC(=O)N(CC)CC(N)=O)Cc1ccc(CP(=O)(O)O)cc1` (Hexanoyl-[Gly(N-Bn(4-CH2PO3H2))][NEtG][NEtG][NEtG]-NH2): the figures for the inhibition in assay [1] and in assay [2] were 4% and 6%, respectively.

`CCCCCC(=O)N(CC(=O)N(CC)CC(=O)N(CC)CC(=O)N(CC(N)=O)CC(C)C)Cc1ccc(CP(=O)(O)O)cc1` (Hexanoyl-[Gly(N-Bn(4-CH2PO3H2))][NEtG][NEtG][Nleu]-NH2): the inhibition in assay [1] and in assay [2] was 2% throughout.

In the case of `CCCCCC(=O)N(CC(=O)N(CC)CC(=O)N(CC(=O)N(CCCc1ccccc1)CC(N)=O)CC(C)C)Cc1ccc(CP(=O)(O)O)cc1` (Hexanoyl-[Gly(N-Bn(4-CH2PO3H2))][NEtG][Nleu][N(3-phenylpropyl)Gly]-NH2), the inhibition worked out at 15% in assay [1] and 2% in assay [2].

Regarding `CCCCCC(=O)N(CC(=O)N(CC)CC(=O)N(CC(=O)N(CC)CC(N)=O)CC(C)C)Cc1ccc(CP(=O)(O)O)cc1` (Hexanoyl-[Gly(N-Bn(4-CH2PO3H2))][NEtG][Nleu][NEtG]-NH2), the values for the inhibition in assay [1] and in assay [2] were 0% and 2%, respectively.

With `CCCCCC(=O)N(CC(=O)N(CC)CC(=O)N(CC(=O)N(CC(N)=O)CC(C)C)CC(C)C)Cc1ccc(CP(=O)(O)O)cc1` (Hexanoyl-[Gly(N-Bn(4-CH2PO3H2))][NEtG][Nleu][Nleu]-NH2), the inhibition is 6% in assay [1] and 8% in assay [2].

As for `CCCCCC(=O)N(CC(=O)N(CC(=O)N(CCCc1ccccc1)CC(=O)N(CCCc1ccccc1)CC(N)=O)CC(C)C)Cc1ccc(CP(=O)(O)O)cc1` (Hexanoyl-[Gly(N-Bn(4-CH2PO3H2))][Nleu][N(3-phenylpropyl)Gly][N(3-phenylpropyl)Gly]-NH2), the inhibition in assay [1] is 3%; in assay [2] it was 0%.

On to `CCCCCC(=O)N(CC(=O)N(CC(=O)N(CCCc1ccccc1)CC(=O)N(CC)CC(N)=O)CC(C)C)Cc1ccc(CP(=O)(O)O)cc1` (Hexanoyl-[Gly(N-Bn(4-CH2PO3H2))][Nleu][N(3-phenylpropyl)Gly][NEtG]-NH2), for which the values for the inhibition in assay [1] and in assay [2] were 4% and 5%, respectively.

With `CCCCCC(=O)N(CC(=O)N(CC(=O)N(CCCc1ccccc1)CC(=O)N(CC(N)=O)CC(C)C)CC(C)C)Cc1ccc(CP(=O)(O)O)cc1` (Hexanoyl-[Gly(N-Bn(4-CH2PO3H2))][Nleu][N(3-phenylpropyl)Gly][Nleu]-NH2), the inhibition in assay [1] was 1%; in assay [2], 3%.

As to `CCCCCC(=O)N(CC(=O)N(CC(=O)N(CC)CC(=O)N(CCCc1ccccc1)CC(N)=O)CC(C)C)Cc1ccc(CP(=O)(O)O)cc1` (Hexanoyl-[Gly(N-Bn(4-CH2PO3H2))][Nleu][NEtG][N(3-phenylpropyl)Gly]-NH2), the inhibition came out at 10% in assay [1] and 2% in assay [2].

`CCCCCC(=O)N(CC(=O)N(CC(=O)N(CC)CC(=O)N(CC)CC(N)=O)CC(C)C)Cc1ccc(CP(=O)(O)O)cc1` (Hexanoyl-[Gly(N-Bn(4-CH2PO3H2))][Nleu][NEtG][NEtG]-NH2): the inhibition in assay [1] turned out to be 61%; in assay [2], 15%.

Take `CCCCCC(=O)N(CC(=O)N(CC(=O)N(CC)CC(=O)N(CC(N)=O)CC(C)C)CC(C)C)Cc1ccc(CP(=O)(O)O)cc1` (Hexanoyl-[Gly(N-Bn(4-CH2PO3H2))][Nleu][NEtG][Nleu]-NH2): the inhibition was 9% in assay [1] and 30% in assay [2].

For `CCCCCC(=O)N(CC(=O)N(CC(=O)N(CC(=O)N(CCCc1ccccc1)CC(N)=O)CC(C)C)CC(C)C)Cc1ccc(CP(=O)(O)O)cc1` (Hexanoyl-[Gly(N-Bn(4-CH2PO3H2))][Nleu][Nleu][N(3-phenylpropyl)Gly]-NH2), the values for the inhibition in assay [1] and in assay [2] were 1% and 5%, respectively.

Turning to `CCCCCC(=O)N(CC(=O)N(CC(=O)N(CC(=O)N(CC)CC(N)=O)CC(C)C)CC(C)C)Cc1ccc(CP(=O)(O)O)cc1` (Hexanoyl-[Gly(N-Bn(4-CH2PO3H2))][Nleu][Nleu][NEtG]-NH2), the inhibition in assay [1] was determined as 1%; in assay [2], 4%.

As for `CCCCCC(=O)N(CC(=O)N(CC(=O)N(CC(=O)N(CC(N)=O)CC(C)C)CC(C)C)CC(C)C)Cc1ccc(CP(=O)(O)O)cc1` (Hexanoyl-[Gly(N-Bn(4-CH2PO3H2))][Nleu][Nleu][Nleu]-NH2), the inhibition in assay [1] turned out to be 3%; in assay [2] it was 6%.

The inhibition is the drop in the measured response relative to a control, in per cent. Low values mean a weak effect, high ones a strong effect. What is called IC50 is the concentration that gives 50% inhibition. Lower therefore signals inhibition by little substance.
